Experimental data taken from the SangsterLogP compilation.

Experiment: method code SF, from Suwinski, J.; Salwinska, E.; Watras, J.; Widel, M. (1985). Nitroimidazoles. VI. Partition coefficients and tautomerism of simple nitroimidazoles. 42(4)352-358.
Compound `O=[N+]([O-])c1[nH]cnc1Br` has a logP of 0.78.
In the case of `Cc1nc(Br)c([N+](=O)[O-])n1C`, the logP is reported as 0.87.
`Cn1cc([N+](=O)[O-])nc1Br` showed a logP of 0.33.
`Cc1nc([N+](=O)[O-])c(Cl)n1C` showed a logP of 0.34.
In the case of `Cn1cnc(Cl)c1[N+](=O)[O-]`, the logP is reported as 0.69.
For `Cc1nc([N+](=O)[O-])c(N)n1C`, the logP was -1.1.
With `COc1[nH]cnc1[N+](=O)[O-]` the logP was 0.13.
Compound `Cc1nc(Cl)c([N+](=O)[O-])n1C` has a logP of 0.87.
`Cc1c([N+](=O)[O-])ncn1C` showed a logP of -0.11.
With `Cc1nc([N+](=O)[O-])c(Br)n1C` the logP was 0.44.
Work on `COc1c([N+](=O)[O-])nc(C)n1C` yielded a logP of -0.09.
With `COc1[nH]c(C)nc1[N+](=O)[O-]` the logP was 0.21.
Compound `Cc1nc([N+](=O)[O-])c(Br)[nH]1` has a logP of 1.14.
`Cc1nc(Br)n(C)c1[N+](=O)[O-]` showed a logP of 0.82.
In the case of `Cc1[nH]c(Br)nc1[N+](=O)[O-]`, the logP is reported as 0.86.
Compound `Cn1ccnc1[N+](=O)[O-]` has a logP of -0.17.
`Cc1[nH]cnc1[N+](=O)[O-]` showed a logP of 0.23.
For `Cc1nc([N+](=O)[O-])c(Cl)[nH]1`, the logP was 1.06.
`Cn1cc([N+](=O)[O-])nc1Cl` showed a logP of 0.19.
Compound `COc1c([N+](=O)[O-])ncn1C` has a logP of 0.19.
With `Cn1c([N+](=O)[O-])cnc1Cl` the logP was 0.62.
Work on `Cc1c([N+](=O)[O-])nc(Br)n1C` yielded a logP of 0.39.
In the case of `Cn1cnc(Br)c1[N+](=O)[O-]`, the logP is reported as 0.77.
Compound `Cn1cnc([N+](=O)[O-])c1Br` has a logP of 0.36.
`Cn1cncc1[N+](=O)[O-]` showed a logP of 0.13.
Work on `Cc1nc([N+](=O)[O-])cn1C` yielded a logP of -0.24.
With `Cn1cnc([N+](=O)[O-])c1N` the logP was -1.
`O=[N+]([O-])c1ncc[nH]1` gave a logP of 0.11.
Work on `Cn1cnc([N+](=O)[O-])c1` yielded a logP of -0.44.
